# Assay results reported in PubChem BioAssay (NCI).
#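 Cells were grown in 96-well plates and exposed to each compound for 48 hours at five concentrations; endpoints were interpolated linearly between bracketing concentrations, or set to the highest concentration if not reached. TGI denotes the concentration required for complete inhibition of growth.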
# Tests used:
# Assay in all cases: NCI-60 cell line screen, 48 h
# SNB-19 CNS = system: SNB-19 CNS
# HS 578T breast = system: HS 578T breast
# KM12 colon = system: KM12 colon
# M14 melanoma = system: M14 melanoma
# SF-295 CNS = system: SF-295 CNS
# NCI-H23 lung = system: NCI-H23 lung
# EKVX NSCLC = system: EKVX NSCLC
# ACHN renal = system: ACHN renal
# A549 NSCLC = system: A549 NSCLC
# HOP-92 NSCLC = system: HOP-92 NSCLC
# HT29 colon = system: HT29 colon
# CAKI-1 renal = system: CAKI-1 renal
# SK-MEL-2 melanoma = system: SK-MEL-2 melanoma
# SW-620 colon = system: SW-620 colon
# OVCAR-4 ovarian = system: OVCAR-4 ovarian
# NCI/ADR-RES ovarian = system: NCI/ADR-RES ovarian
# DU-145 prostate = system: DU-145 prostate
# PC-3 prostate = system: PC-3 prostate
# MDA-MB-231 breast = system: MDA-MB-231 breast
# MDA-MB-435 = system: MDA-MB-435
# SK-MEL-5 melanoma = system: SK-MEL-5 melanoma
# CCRF-CEM leukemia = system: CCRF-CEM leukemia
# T-47D breast = system: T-47D breast
# OVCAR-5 ovarian = system: OVCAR-5 ovarian
# NCI-H460 lung = system: NCI-H460 lung
# SK-OV-3 ovarian = system: SK-OV-3 ovarian
# NCI-H226 lung = system: NCI-H226 lung
# UACC-62 melanoma = system: UACC-62 melanoma
# HCT-15 colon = system: HCT-15 colon
# UO-31 renal = system: UO-31 renal
# HL-60(TB) leukemia = system: HL-60(TB) leukemia
# HOP-62 NSCLC = system: HOP-62 NSCLC
# SF-268 CNS = system: SF-268 CNS
# 786-0 renal = system: 786-0 renal
# SN12C renal = system: SN12C renal
# MDA-N = system: MDA-N
# IGROV1 ovarian = system: IGROV1 ovarian
# BT-549 breast = system: BT-549 breast
# TK-10 renal = system: TK-10 renal
# SK-MEL-28 melanoma = system: SK-MEL-28 melanoma
# COLO 205 colon = system: COLO 205 colon
# SNB-75 CNS = system: SNB-75 CNS
# HCT-116 colon = system: HCT-116 colon
# OVCAR-8 ovarian = system: OVCAR-8 ovarian
# MOLT-4 leukemia = system: MOLT-4 leukemia
# RXF 393 renal = system: RXF 393 renal
# NCI-H522 lung = system: NCI-H522 lung
# LOX IMVI melanoma = system: LOX IMVI melanoma
# MALME-3M melanoma = system: MALME-3M melanoma
# SF-539 CNS = system: SF-539 CNS
# OVCAR-3 ovarian = system: OVCAR-3 ovarian
# UACC-257 melanoma = system: UACC-257 melanoma
# U251 CNS = system: U251 CNS
# HCC-2998 colon = system: HCC-2998 colon
# RPMI-8226 leukemia = system: RPMI-8226 leukemia
# MCF7 breast = system: MCF7 breast
# SR leukemia = system: SR leukemia
# K-562 leukemia = system: K-562 leukemia
# A498 renal = system: A498 renal
compound,measurement,setting,value
CCCCCCCCCCCCCCCCCCNc1ccn(C2OC(CO)C(OP(=O)(O)OCC3CCC(n4ccc(N)nc4=O)O3)C2O)c(=O)n1 (stereo not given),TGI,SNB-19 CNS,> 100 µM
same,TGI,HS 578T breast,> 100 µM
same,TGI,KM12 colon,> 100 µM
same,TGI,M14 melanoma,> 100 µM
same,TGI,SF-295 CNS,> 100 µM
same,TGI,NCI-H23 lung,> 100 µM
same,TGI,EKVX NSCLC,> 100 µM
same,TGI,ACHN renal,> 100 µM
same,TGI,A549 NSCLC,> 100 µM
same,TGI,HOP-92 NSCLC,> 100 µM
same,TGI,HT29 colon,> 100 µM
same,TGI,CAKI-1 renal,> 100 µM
same,TGI,SK-MEL-2 melanoma,> 100 µM
same,TGI,SW-620 colon,> 100 µM
same,TGI,OVCAR-4 ovarian,> 100 µM
same,TGI,NCI/ADR-RES ovarian,> 100 µM
same,TGI,DU-145 prostate,> 100 µM
same,TGI,PC-3 prostate,40.6 µM
same,TGI,MDA-MB-231 breast,> 100 µM
same,TGI,MDA-MB-435,> 100 µM
same,TGI,SK-MEL-5 melanoma,> 100 µM
same,TGI,CCRF-CEM leukemia,58.1 µM
same,TGI,T-47D breast,> 100 µM
same,TGI,OVCAR-5 ovarian,> 100 µM
same,TGI,NCI-H460 lung,> 100 µM
same,TGI,SK-OV-3 ovarian,> 100 µM
same,TGI,NCI-H226 lung,> 100 µM
same,TGI,UACC-62 melanoma,> 100 µM
same,TGI,HCT-15 colon,> 100 µM
same,TGI,UO-31 renal,56.7 µM
same,TGI,HL-60(TB) leukemia,43.6 µM
same,TGI,HOP-62 NSCLC,> 100 µM
same,TGI,SF-268 CNS,> 100 µM
same,TGI,786-0 renal,> 100 µM
same,TGI,SN12C renal,> 100 µM
same,TGI,MDA-N,> 100 µM
same,TGI,IGROV1 ovarian,> 100 µM
same,TGI,BT-549 breast,89.8 µM
same,TGI,TK-10 renal,> 100 µM
same,TGI,SK-MEL-28 melanoma,> 100 µM
same,TGI,COLO 205 colon,> 100 µM
same,TGI,SNB-75 CNS,> 100 µM
same,TGI,HCT-116 colon,> 100 µM
same,TGI,OVCAR-8 ovarian,> 100 µM
same,TGI,MOLT-4 leukemia,10.2 µM
same,TGI,RXF 393 renal,45.1 µM
same,TGI,NCI-H522 lung,> 100 µM
same,TGI,LOX IMVI melanoma,> 100 µM
same,TGI,MALME-3M melanoma,94.8 µM
same,TGI,SF-539 CNS,> 100 µM
same,TGI,OVCAR-3 ovarian,> 100 µM
same,TGI,UACC-257 melanoma,> 100 µM
same,TGI,U251 CNS,> 100 µM
CC1C(c2ccccc2O)c2cc3c(cc2OC1N1CCCC1)OCO3 (stereo not given),TGI,SNB-19 CNS,> 100 µM
same,TGI,HS 578T breast,43.3 µM
same,TGI,HCC-2998 colon,> 100 µM
same,TGI,KM12 colon,> 100 µM
same,TGI,M14 melanoma,36.8 µM
same,TGI,SF-295 CNS,74.9 µM
same,TGI,NCI-H23 lung,> 100 µM
same,TGI,EKVX NSCLC,> 100 µM
same,TGI,ACHN renal,> 100 µM
same,TGI,A549 NSCLC,> 100 µM
same,TGI,RPMI-8226 leukemia,57.5 µM
same,TGI,HOP-92 NSCLC,69.3 µM
same,TGI,HT29 colon,30.8 µM
same,TGI,CAKI-1 renal,> 100 µM
same,TGI,SK-MEL-2 melanoma,80 µM
same,TGI,SW-620 colon,44.4 µM
same,TGI,DU-145 prostate,> 100 µM
same,TGI,PC-3 prostate,98.8 µM
same,TGI,MDA-MB-231 breast,61.2 µM
same,TGI,MDA-MB-435,81.9 µM
same,TGI,SK-MEL-5 melanoma,> 100 µM
same,TGI,CCRF-CEM leukemia,> 100 µM
same,TGI,T-47D breast,> 100 µM
same,TGI,OVCAR-5 ovarian,> 100 µM
same,TGI,MCF7 breast,67.4 µM
same,TGI,NCI-H460 lung,32.4 µM
same,TGI,SR leukemia,54.2 µM
same,TGI,SK-OV-3 ovarian,> 100 µM
same,TGI,NCI-H226 lung,> 100 µM
same,TGI,UACC-62 melanoma,> 100 µM
same,TGI,HCT-15 colon,> 100 µM
same,TGI,UO-31 renal,> 100 µM
same,TGI,HL-60(TB) leukemia,35.1 µM
same,TGI,HOP-62 NSCLC,49.8 µM
same,TGI,SF-268 CNS,> 100 µM
same,TGI,786-0 renal,91 µM
same,TGI,SN12C renal,35.8 µM
same,TGI,MDA-N,46.8 µM
same,TGI,IGROV1 ovarian,> 100 µM
same,TGI,K-562 leukemia,41.8 µM
same,TGI,BT-549 breast,> 100 µM
same,TGI,TK-10 renal,> 100 µM
same,TGI,SK-MEL-28 melanoma,46.6 µM
same,TGI,COLO 205 colon,55.5 µM
same,TGI,SNB-75 CNS,88 µM
same,TGI,HCT-116 colon,43.1 µM
same,TGI,OVCAR-8 ovarian,> 100 µM
same,TGI,MOLT-4 leukemia,65 µM
same,TGI,RXF 393 renal,31.8 µM
same,TGI,NCI-H522 lung,70.3 µM
same,TGI,LOX IMVI melanoma,44.3 µM
same,TGI,MALME-3M melanoma,80.2 µM
same,TGI,SF-539 CNS,50.2 µM
same,TGI,OVCAR-3 ovarian,56.6 µM
same,TGI,UACC-257 melanoma,92.5 µM
same,TGI,U251 CNS,> 100 µM
same,TGI,A498 renal,60.7 µM
